Entries after “also recorded” stand apart in the source; their conditions may differ.
How the values were obtained:
histone H4 on HUVEC = experiment: Cytotoxic assay: suppression of histone cytotoxicity on HUVEC; assay type: cell-based, human; settings: 1 hr culture, PI staining, FACS
Description: (§1) Normal human umbilical vein endothelial cells (HUVECs) were cultured in EGM2 medium (Clonetics). The cells after culture were washed with PBS, added with Opti-MEM medium containing an product of incubation of activated protein C (APC), PTX3, C reactive protein (CRP) or Serum amyloid P component (SAP) with histone for 1 hr, and the cells were further cultured for 1 hr. Propidium iodide (PI) was added to the medium after culture at a final concentration of 10 μg/mL, and the cells were stained for 10 min. The cells were washed with PBS, detached and analyzed by flow cytometry.
(§2) Using each recombinant histone instead of Calf Thymus Histones, a suppressive effect of full-length PTX3 or the N-terminal domain of PTX3 on histone cytotoxicity was studied in the same manner.
Lastly, capacity of suppressing the cytotoxic activity of histone was confirmed. Since this experiment requires a certain amount of protein and an endotoxin-elimination as treatment, a protein was expressed and purified at a 500 mL culture scale, and subjected to an endotoxin-elimination treatment (FIG. 18). In the case of PTX3 N-terminal domain, about 10 mg was obtained at a 500 mL culture scale, and a loss by the endotoxin-elimination treatment was scarcely observed. […] A capacity of fragment proteins obtained at a 500 mL scale on HUVEC to suppress histone cytotoxicity was studied. […]

histone H4 [1] = target: T1, histone H4 (Homo sapiens, UniProt P62805); experiment: CD spectrum of histone H4-PTX3 complex
Description: The CD spectrum of the histone H4-PTX3 complex was measured. The N-terminal domain of PTX3 (25 μg/mL) and histone H4 (5 μg/mL) were each independently measured, and further, the histone H4-PTX3 mixture was measured (FIG. 6D).

[2] = system: mice intraperitoneally administered with LPS; experiment: LPS-administered mouse; assay type: in vivo
Description: At 0, 6 and 24 hr from the LPS administration, heparin plasma was collected, and the concentrations of mouse IL-6 and mouse VEGF were measured using ELISA kit (R&D).
The survival rate of the mice intraperitoneally administered with LPS at a concentration of 16 mg/kg is shown. The N-terminal domain of PTX3 (5 mg/kg) or control buffer was intraperitoneally administered 2 hr prior to LPS administration. In addition, the time-course changes in the plasma IL-6 and VEGF levels of the LPS-administrated mice treated with the N-terminal domain of PTX3 were measured by ELISA.

Calf Thymus Histones = experiment: Aggregation with histone, absorbance at 310 nm; assay type: binding; settings: mixture with Calf Thymus Histones
Description: The lower left figure and the lower right figure show the measurement results of absorbance at 310 nm of a mixture of a wild-type or oligomer formation capacity-deficient mutant of PTX3 N-terminal domain having each concentration and 0.1 mg/mL Calf Thymus Histones at 1:1 vol.
The aggregation activity of PTX3 and other pentraxins to histone was evaluated. Calf Thymus Histones (50 μg/mL) were mixed with a PTX3 fragment or the other pentraxin at each concentration, and the absorbance at the wavelength of 310 nm was measured. Before mixing, samples were dialyzed against 4 mM CaCl2-containing TBS.

histone H2A = target: T2, histone H2A (Homo sapiens, UniProt Q7L7L0); experiment: ELISA binding assay; settings: immobilized recombinant histone
T2 construct: purchased NEB
Description: (§3) Recombinant human histone (NEB) was adjusted to a concentration of 1 μg/mL in TBS, added to a 96 well ELISA plate, and immobilized at 4° C. overnight. The solution was discarded, a blocking buffer (TBS, 0.1% Triton-X100, 1% BSA) was added, and the plate was incubated at room temperature for 2 hr. The plate was washed four times with a wash buffer (TBS, 0.1% Triton-X100), recombinant PTX3 diluted to various concentrations with the blocking buffer was added to each well, and reacted at room temperature for 1 hr. After washing four times with the wash buffer, HRP-labeled antibody diluted with the blocking buffer was added, and reacted at room temperature for 1 hr. After washing four times with the wash buffer, TMB solution was added to carry out a color development reaction for 30 min, and the absorbance at 450 nm was measured. Assay was performed using all the buffers containing 4 mM CaCl2 or 4 mM EDTA.
(§4) The binding level between immobilized each recombinant histone and a tagged human PTX3 fragment was measured by binding assay (ELISA). For detection, HRP-labeled anti-His (6×His) antibody was used. ELISA was performed with duplicate wells for each point, and means and standard deviations were calculated from three independent experiments.

histone H2B = target: T3, histone H2B (Homo sapiens, UniProt Q16778); experiment: ELISA binding assay; settings: immobilized recombinant histone
T3 construct: purchased NEB
Description: as §3, §4

[3] = system: mouse subjected to cecal ligation and puncture (CLP); experiment: Cecal ligation and puncture (CLP) mouse; assay type: in vivo; settings: 5 mg/kg with gentamicin 5 mg/kg, 4 hr after CLP, versus gentamicin alone
Description: For cecal ligation and puncture (CLP) treatment, male C57BL/6 mouse was anesthetized, laparotomy was performed, and cecum was exposed and ligated. A hole is made with an injection needle at the middle between the ligated site and cecum peripheral site, and the abdomen is closed. Four hours from the CLP treatment, the N-terminal domain of PTX3 (5 mg/kg) and gentamicin (5 mg/kg), or gentamicin (5 mg/kg) alone were(was) administered to the mouse.
Mouse was subjected to cecal ligation and puncture (CLP) treatment and, 4 hr later from the treatment, the N-terminal domain of PTX3 (5 mg/kg) and gentamicin (5 mg/kg), or gentamicin (5 mg/kg) alone were(was) administered to the mouse.

histone H4 [4] = target: T1, histone H4; experiment: PTX3-histone aggregation, UV-visible absorption spectrum (310 nm); assay type: binding; parameters: purchased NEB; settings: PTX3 at various concentrations mixed with histone H4
Description: 0.1 mg/mL human histone H4 was mixed with equal volume of various concentrations of Myc-tagged full-length PTX3, and UV-visible absorption spectrum was measured. A graph of absorbance at 310 nm is shown at the top.
Full-length PTX3 at each concentration was mixed with 50 μg/mL histone H4, and UV-visible absorption spectrum (wavelength 310 nm) was measured.

histone H4 [5] = target: T1, histone H4; experiment: Dose-dependent precipitate formation (supernatant after centrifugation); assay type: binding; settings: PTX3 0, 12.5, 25, 50 μg/mL; histone H4 50 μg/mL
Description: Full-length PTX3 at each concentration (0, 12.5, 25, 50 μg/mL) was mixed with Calf Thymus Histones (50 μg/mL) or histone H4 (50 μg/mL), and the mixture was centrifuged. The obtained supernatant was subjected to immunoblotting using PPZ-1228 or SYPRO Ruby staining.

[6] = system: each recombinant histone on HUVEC; experiment: Cytotoxic assay: suppression of histone cytotoxicity on HUVEC; assay type: cell-based, human; settings: 1 hr culture, PI staining, FACS
Description: as §1, §2

[7] = LPS-administrated mice, 5 mg/kg, ELISA

Substance | suppression of toxic activity of histone H4 on HUVEC (histone H4 on HUVEC) | CD spectrum, mixed with histone H4 (histone H4 [1]; 25 μg/mL with histone H4 5 μg/mL) | CD spectrum, alone (histone H4 [1]; 25 μg/mL, measured independently) | inflammatory reaction caused by LPS administration (biochemical study of blood) ([2]; 5 mg/kg intraperitoneally 2 hr prior to LPS 16 mg/kg) | mortality due to LPS administration ([2]; 5 mg/kg intraperitoneally 2 hr prior to LPS 16 mg/kg, C57BL/6 mice) | plasma IL-6 level [2, 7] | plasma VEGF level [2, 7] | aggregation with Calf Thymus Histones, absorbance at 310 nm (Calf Thymus Histones) | aggregation with Calf Thymus Histones, absorbance at 310 nm (Calf Thymus Histones; listed as N-terminal domain) | bindability to histone H2A (binding assay) (histone H2A) | bindability to histone H2B (binding assay) (histone H2B) | mortality due to the CLP treatment [3] | aggregation with histone H4, UV-visible absorption spectrum (histone H4 [4]) | precipitate formation with histone H4 (histone H4 [5]) | suppression of toxic activity of each recombinant histone on HUVEC [6]
N-terminal domain of PTX3: N-terminal domain human PTX3 (18-178 amino acids, SEQ ID NO: 3), tagged, expressed in CHO cells or Escherichia coli | suppress; also recorded: suppressed | did not afford a spectrum pattern showing a general secondary structure | a spectrum pattern having α-helix in the secondary structure | suppressed | significantly improved mortality | suppressed | suppressed | showed an aggregation activity with histone | an aggregation reaction | lower than that of the full-length PTX3 | lower than that of the full-length PTX3 | significantly improved |  |  | 
full-length PTX3: full-length human pentraxin 3 (1-381 amino acids, SEQ ID NO: 2), used tag-free or Myc- and His-tagged |  |  |  |  |  |  |  | showed an aggregation activity with histone |  |  |  |  | dose-dependent spectrum | precipitated as an insoluble product | suppressed
